The values below come from paper PMC8217266 (Clinical Pharmacology and Therapeutics, 2021).

The target of one series is T1, human OCT1 (Homo sapiens, UniProt O15245).
T1 sequence (O15245 1-554): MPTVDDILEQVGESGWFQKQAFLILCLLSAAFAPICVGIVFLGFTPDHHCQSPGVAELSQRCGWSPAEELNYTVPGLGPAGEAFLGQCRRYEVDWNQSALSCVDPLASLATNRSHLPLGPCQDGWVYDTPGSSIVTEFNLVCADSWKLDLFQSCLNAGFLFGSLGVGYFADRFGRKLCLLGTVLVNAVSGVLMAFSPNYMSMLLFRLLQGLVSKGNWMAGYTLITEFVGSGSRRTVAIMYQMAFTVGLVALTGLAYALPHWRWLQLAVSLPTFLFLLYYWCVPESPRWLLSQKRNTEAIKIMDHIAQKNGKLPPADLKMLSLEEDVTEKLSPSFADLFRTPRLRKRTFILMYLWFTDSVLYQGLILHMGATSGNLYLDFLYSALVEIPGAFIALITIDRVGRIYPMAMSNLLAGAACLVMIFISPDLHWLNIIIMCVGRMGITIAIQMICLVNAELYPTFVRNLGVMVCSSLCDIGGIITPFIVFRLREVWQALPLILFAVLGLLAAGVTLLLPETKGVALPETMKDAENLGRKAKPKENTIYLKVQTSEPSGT
The series is described as follows: cell-based.

The target of another series is T2, BCRP (Homo sapiens, UniProt Q9UNQ0).
T2 sequence (Q9UNQ0 1-655): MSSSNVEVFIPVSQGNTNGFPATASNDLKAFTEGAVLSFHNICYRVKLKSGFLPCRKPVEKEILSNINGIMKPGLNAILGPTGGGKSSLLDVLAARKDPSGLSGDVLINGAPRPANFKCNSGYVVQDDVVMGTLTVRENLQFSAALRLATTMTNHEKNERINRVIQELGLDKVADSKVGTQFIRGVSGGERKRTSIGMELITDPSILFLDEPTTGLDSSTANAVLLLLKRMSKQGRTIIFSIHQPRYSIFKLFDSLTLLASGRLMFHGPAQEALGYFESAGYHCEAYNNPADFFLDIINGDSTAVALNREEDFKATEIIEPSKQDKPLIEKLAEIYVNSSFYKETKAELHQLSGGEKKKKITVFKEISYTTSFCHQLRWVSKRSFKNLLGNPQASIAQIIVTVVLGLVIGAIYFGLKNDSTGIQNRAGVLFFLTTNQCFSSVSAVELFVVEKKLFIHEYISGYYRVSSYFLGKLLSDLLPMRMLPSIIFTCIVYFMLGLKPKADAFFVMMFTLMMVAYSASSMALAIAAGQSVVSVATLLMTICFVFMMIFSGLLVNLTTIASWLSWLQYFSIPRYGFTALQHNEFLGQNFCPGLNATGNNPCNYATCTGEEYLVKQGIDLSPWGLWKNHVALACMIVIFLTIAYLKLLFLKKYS
The series is described as follows: biochemical.

A further series addresses human MATE2 (Homo sapiens, UniProt Q86VL8). In words: cell-based.
The target in a further series is T3, human OAT1 (Homo sapiens, UniProt Q4U2R8).
T3 sequence (Q4U2R8 1-563): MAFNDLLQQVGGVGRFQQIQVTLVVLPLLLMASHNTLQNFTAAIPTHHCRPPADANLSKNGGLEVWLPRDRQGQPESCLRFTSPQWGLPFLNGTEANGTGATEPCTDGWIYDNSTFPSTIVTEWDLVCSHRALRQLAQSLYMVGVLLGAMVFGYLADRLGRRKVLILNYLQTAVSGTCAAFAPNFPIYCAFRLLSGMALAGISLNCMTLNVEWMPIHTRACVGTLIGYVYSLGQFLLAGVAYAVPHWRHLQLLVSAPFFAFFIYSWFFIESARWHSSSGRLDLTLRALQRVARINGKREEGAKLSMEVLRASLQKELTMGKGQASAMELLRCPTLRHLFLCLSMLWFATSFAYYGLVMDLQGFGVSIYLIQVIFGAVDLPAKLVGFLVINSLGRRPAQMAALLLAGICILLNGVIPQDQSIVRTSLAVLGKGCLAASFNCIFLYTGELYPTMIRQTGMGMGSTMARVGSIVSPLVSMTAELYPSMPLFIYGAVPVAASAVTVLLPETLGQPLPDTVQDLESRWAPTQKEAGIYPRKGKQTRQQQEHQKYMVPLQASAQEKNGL
In words: cell-based.

The target of the next series is T4, human OAT3 (Homo sapiens, UniProt Q8TCC7).
T4 sequence (Q8TCC7 1-542): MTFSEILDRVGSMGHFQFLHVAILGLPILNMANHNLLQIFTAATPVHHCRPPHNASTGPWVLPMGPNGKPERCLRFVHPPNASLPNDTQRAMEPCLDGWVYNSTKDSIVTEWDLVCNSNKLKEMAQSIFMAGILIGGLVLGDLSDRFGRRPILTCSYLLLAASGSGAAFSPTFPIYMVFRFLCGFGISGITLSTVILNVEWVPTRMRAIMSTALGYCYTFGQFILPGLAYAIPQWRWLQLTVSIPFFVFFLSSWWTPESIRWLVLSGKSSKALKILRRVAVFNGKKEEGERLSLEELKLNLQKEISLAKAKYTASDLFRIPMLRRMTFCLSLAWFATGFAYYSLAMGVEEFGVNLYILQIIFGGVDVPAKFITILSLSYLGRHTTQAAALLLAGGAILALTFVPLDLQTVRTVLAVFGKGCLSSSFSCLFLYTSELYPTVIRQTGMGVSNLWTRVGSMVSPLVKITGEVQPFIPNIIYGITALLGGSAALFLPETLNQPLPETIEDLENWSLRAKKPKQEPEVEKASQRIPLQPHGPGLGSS
The series is described as follows: cell-based.

The target in the next series is P-gp (Homo sapiens, UniProt P08183). The series is described as follows: biochemical.
Chain of P-gp (P08183 whole entry): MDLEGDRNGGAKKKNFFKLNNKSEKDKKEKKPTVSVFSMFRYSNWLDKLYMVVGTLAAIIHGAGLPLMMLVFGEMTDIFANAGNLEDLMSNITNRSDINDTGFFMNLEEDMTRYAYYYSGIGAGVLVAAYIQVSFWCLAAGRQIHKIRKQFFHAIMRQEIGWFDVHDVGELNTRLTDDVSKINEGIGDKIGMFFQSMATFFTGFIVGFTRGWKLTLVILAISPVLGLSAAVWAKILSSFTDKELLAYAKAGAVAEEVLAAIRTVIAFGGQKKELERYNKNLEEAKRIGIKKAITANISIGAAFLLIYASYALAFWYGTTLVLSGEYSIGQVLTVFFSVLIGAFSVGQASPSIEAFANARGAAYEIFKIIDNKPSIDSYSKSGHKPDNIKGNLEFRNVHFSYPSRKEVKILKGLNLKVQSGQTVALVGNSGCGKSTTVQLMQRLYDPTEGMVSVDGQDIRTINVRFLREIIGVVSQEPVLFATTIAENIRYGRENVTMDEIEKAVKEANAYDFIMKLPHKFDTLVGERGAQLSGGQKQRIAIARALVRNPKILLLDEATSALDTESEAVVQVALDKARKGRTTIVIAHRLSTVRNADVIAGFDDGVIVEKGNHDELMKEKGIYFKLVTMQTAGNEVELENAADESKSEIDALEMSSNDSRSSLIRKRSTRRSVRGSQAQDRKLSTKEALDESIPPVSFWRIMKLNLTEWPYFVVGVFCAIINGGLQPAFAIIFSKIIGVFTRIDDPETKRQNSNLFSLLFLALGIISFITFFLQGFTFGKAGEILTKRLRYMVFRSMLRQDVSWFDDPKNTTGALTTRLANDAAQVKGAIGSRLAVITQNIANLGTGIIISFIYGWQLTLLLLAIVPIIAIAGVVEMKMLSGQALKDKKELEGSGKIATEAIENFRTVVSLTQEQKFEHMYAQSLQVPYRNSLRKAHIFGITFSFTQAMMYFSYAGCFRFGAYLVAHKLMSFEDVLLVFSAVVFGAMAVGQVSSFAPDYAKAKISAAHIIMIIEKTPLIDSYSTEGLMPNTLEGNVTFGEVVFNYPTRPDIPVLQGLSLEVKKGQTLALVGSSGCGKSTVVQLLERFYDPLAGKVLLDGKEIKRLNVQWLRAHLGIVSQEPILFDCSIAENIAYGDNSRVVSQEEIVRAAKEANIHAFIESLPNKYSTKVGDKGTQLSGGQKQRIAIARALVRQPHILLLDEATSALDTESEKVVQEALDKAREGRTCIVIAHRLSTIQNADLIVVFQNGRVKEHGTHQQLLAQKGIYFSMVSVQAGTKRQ
Series [1] concerns transporters at major organ sites. In words: Prediction of transporter-mediated inhibition / DDI potential. Also noted: species or system human. To be noted: of 11 transporters; FDA criteria.
The target in another series is T5, human MATE1 (Homo sapiens, UniProt Q96FL8).
T5 sequence (Q96FL8 1-570): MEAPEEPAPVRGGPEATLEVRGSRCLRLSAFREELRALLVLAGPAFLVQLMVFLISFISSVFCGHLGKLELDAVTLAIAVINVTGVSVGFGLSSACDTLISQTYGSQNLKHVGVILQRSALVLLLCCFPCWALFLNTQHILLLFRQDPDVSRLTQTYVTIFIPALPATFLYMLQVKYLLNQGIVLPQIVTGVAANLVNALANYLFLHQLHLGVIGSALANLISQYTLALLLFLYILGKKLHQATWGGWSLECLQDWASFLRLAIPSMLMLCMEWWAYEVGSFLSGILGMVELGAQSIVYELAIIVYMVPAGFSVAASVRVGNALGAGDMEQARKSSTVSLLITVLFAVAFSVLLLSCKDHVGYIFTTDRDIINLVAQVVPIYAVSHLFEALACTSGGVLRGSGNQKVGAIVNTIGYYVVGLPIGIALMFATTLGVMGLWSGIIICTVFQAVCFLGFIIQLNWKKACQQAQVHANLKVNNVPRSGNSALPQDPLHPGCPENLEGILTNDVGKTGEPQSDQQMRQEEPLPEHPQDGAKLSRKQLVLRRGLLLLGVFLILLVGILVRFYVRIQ
In words: cell-based.

For series [2] the following is noted: known in vivo P-gp inhibitor; cited from earlier work.

A value given as a limit tells only on which side of the number the result lay.

Broadly, the IC50 is the concentration that gives 50% inhibition. Low values mean higher potency, high ones lower potency.

Chain of human MATE2 (Q86VL8 1-566 isoform Q86VL8-3): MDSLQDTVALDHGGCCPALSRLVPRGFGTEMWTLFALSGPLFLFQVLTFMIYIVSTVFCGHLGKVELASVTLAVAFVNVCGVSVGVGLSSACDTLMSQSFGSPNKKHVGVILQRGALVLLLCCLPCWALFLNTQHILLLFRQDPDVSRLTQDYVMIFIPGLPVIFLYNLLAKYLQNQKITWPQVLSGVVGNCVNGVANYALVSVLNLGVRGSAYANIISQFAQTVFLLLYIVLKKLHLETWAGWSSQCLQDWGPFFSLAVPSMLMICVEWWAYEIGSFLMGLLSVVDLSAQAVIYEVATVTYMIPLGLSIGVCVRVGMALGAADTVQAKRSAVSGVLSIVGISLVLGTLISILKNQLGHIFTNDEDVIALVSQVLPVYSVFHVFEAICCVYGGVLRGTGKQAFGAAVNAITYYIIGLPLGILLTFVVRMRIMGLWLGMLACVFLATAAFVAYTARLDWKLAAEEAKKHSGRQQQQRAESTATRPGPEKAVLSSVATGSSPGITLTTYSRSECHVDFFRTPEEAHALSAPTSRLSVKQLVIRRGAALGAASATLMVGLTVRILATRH

For `CC[C@H]1OC(=O)[C@H](C)[C@@H](O[C@H]2C[C@@](C)(OC)[C@@H](O)[C@H](C)O2)[C@H](C)[C@@H](O[C@@H]2O[C@H](C)C[C@H](N(C)C)[C@H]2O)[C@](C)(O)C[C@@H](C)CN(C)[C@H](C)[C@@H](O)[C@]1(C)O` [Azithromycin], the IC50 against human OCT1 is more than 50 µM; against BCRP, more than 50 µM; against human MATE2 it was more than 50 µM; against human OAT1, more than 50 µM; on human OAT3, more than 50 µM; against P-gp, 18 µM. This molecule returned an IC50 against human MATE1 of more than 50 µM. For the same molecule, in series [1], the “No. of transporters at major organ sites inhibited at clinical concentrations” value is given as 1. Besides, the “effect on plasma levels of P-gp substrates” value in series [2] is “increases plasma levels of the non‐sedating antihistamine, fexofenadine, and the anticoagulant, ximelagatran”.
